Source: ChEMBL document CHEMBL5131564, “Discovery of Potent and Selective Receptor-Interacting Serine/Threonine Protein Kinase 2 (RIPK2) Inhibitors for the Treatment of Inflammatory Bowel Diseases (IBDs)” (J Med Chem, 2022)
Active and inactive are the calls of the source. The calls are words filed in the database; no cut-off is given here.

Assays:
[1] = Metabolic stability in human liver microsomes assessed as half life at 1 uM by LC/MS/MS analysis; format: ADME, Microsome
[2] = molecular target: Receptor-interacting serine/threonine-protein kinase 2 (Homo sapiens, UniProt O43353); assay: Inhibition of human RIPK2 incubated for 120 mins in presence of [gamma33P]ATP by scintillation counting based radiometry assay
Sequence of Receptor-interacting serine/threonine-protein kinase 2 (O43353 whole entry): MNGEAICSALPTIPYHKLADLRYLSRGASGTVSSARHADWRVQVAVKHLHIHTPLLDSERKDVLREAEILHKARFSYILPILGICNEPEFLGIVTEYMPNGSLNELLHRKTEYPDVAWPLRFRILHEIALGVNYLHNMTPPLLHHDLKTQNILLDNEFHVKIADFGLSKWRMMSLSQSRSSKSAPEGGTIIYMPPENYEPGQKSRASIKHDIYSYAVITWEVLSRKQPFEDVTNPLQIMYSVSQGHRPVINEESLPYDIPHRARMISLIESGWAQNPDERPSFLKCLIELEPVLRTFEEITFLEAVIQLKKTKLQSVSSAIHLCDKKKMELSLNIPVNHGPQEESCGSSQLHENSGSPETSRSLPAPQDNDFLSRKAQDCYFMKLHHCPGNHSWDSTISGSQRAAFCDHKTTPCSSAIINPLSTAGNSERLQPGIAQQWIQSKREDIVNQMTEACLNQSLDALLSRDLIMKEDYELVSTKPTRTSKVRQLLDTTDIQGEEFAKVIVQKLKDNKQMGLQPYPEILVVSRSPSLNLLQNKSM

[3] = molecular target: T1, Receptor-interacting serine/threonine-protein kinase 1 (Homo sapiens) (UniProt Q13546); assay: Inhibition of human RIPK1 assessed as active kinase incubated for 120 mins in presence of [gamma33P]ATP at 1000 nM by scintillation counting based radiometry assay relative to control; parameters: scale not given: the % may be the effect or the level left
T1 sequence (whole entry): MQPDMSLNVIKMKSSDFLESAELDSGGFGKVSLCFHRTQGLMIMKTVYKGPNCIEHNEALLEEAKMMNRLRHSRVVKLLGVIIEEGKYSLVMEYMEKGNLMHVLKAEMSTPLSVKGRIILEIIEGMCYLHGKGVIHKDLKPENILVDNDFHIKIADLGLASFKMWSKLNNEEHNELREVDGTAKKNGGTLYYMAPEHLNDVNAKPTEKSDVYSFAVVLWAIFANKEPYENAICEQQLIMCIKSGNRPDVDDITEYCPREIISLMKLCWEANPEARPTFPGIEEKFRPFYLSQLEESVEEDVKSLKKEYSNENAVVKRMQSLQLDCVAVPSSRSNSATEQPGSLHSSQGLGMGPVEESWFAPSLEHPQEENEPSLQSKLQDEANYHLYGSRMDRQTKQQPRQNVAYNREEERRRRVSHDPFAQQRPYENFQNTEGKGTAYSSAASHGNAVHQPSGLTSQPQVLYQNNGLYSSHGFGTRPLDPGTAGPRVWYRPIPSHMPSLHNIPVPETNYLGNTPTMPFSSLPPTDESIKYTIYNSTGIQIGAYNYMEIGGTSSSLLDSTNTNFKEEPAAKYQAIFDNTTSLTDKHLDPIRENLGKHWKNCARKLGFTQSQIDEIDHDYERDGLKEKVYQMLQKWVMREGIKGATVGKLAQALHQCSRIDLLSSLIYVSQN

[4] = molecular target: Receptor-type tyrosine-protein kinase FLT3 (Homo sapiens) (UniProt P36888); assay: Inhibition of human Flt3 using EAIYAAPFAKKK peptide substrate assessed as active kinase incubated for 40 mins in presence of [gamma33P]ATP at 1000 nM by scintillation counting based radiometry assay relative to control; parameters: scale not given: the % may be the effect or the level left
Sequence of Receptor-type tyrosine-protein kinase FLT3 (Homo sapiens) (P36888 whole entry): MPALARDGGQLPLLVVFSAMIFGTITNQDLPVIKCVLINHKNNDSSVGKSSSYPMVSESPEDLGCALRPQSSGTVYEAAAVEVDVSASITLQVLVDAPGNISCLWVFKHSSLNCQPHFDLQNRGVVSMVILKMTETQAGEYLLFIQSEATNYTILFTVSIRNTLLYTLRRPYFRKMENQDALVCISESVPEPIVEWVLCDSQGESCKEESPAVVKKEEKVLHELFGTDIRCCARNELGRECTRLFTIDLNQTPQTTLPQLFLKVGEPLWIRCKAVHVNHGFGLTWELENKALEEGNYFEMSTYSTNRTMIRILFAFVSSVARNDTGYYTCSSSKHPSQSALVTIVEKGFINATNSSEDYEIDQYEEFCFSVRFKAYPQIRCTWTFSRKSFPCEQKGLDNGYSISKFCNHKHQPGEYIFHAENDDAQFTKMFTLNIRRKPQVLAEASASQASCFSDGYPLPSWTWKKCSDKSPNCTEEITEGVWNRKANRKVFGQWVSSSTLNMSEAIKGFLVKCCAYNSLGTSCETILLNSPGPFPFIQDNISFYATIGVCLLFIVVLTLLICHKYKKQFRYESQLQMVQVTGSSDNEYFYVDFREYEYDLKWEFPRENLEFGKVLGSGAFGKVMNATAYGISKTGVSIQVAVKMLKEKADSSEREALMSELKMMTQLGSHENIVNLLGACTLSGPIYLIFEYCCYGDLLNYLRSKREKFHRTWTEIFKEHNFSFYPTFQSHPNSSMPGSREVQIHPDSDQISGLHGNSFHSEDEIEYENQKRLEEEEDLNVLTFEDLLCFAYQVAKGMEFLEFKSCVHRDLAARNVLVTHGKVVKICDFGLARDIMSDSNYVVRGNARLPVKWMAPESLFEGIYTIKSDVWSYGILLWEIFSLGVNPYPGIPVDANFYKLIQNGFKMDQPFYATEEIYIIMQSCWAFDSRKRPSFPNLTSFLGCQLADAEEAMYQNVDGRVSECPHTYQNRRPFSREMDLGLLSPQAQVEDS

[5] = Inhibition of MDP-stimulated TNFalpha production in mouse RAW264.7 cells at 100 nM incubated for 22 hrs by ELISA relative to control; format: functional
[6] = Toxicity in rat H9c2 cells assessed as inhibitory rate at 10 uM relative to control; format: cell-based
[7] = Inhibition of LPS/MDP-stimulated TNFalpha production in C57BL/6J mouse BMDM cells by ELISA relative to control; format: functional, cell-based
[8] = Toxicity in rat H9c2 cells assessed as inhibitory rate; format: cell-based
Mus musculus = assay: Anti-inflammatory activity against DSS-induced acute ulcerative colitis C57BL/6 mouse model assessed as recovery of weight loss at 20 mg/kg, po for 6 consecutive days; format: functional, organism-based

Row | SMILES | half-life at 1 µM [1] [min] | IC50 [2] [nM] | Activity [3] [%] | Activity [4] [%] | inhibition at 0.1 µM [5] [%] | inhibition at 10 µM [6] [%] | IC50 [7] [nM] | IC50 [8] [nM] | Activity (Mus musculus)
1 | Cc1ccc(-c2cn([C@H]3CC[C@@H](N)CC3)c3ncnc(N)c23)cc1F | 26.9 |  |  |  |  |  |  |  | 
2 | COc1ccc(-c2cn([C@H]3CC[C@@H](NC(=O)c4cc(OC)c(OC)c(OC)c4)CC3)c3ncnc(N)c23)cc1 |  | 3.9 | 87 | 85 | 49 |  |  |  | 
3 | Cc1ccc(-c2cn([C@H]3CC[C@@H](N)CC3)c3ncnc(N)c23)cc1 | 27.4 | 2.4 | 114 |  | 99 | 28 |  |  | 
4 | Nc1ncnc2c1c(-c1ccccc1)cn2[C@H]1CC[C@@H](N)CC1 | 148 | 9 | 104 |  | 70 | 44 |  |  | 
5 | Nc1ncnc2c1c(-c1cc(F)cc(F)c1)cn2[C@H]1CC[C@@H](N)CC1 |  |  | 114 |  | 56 |  |  |  | 
6 | CCCC(=O)N[C@H]1CC[C@@H](n2cc(-c3ccc(OC)cc3)c3c(N)ncnc32)CC1 |  | 6 | 72 | 49 | 31 |  |  |  | 
7 | CC(C)(C)c1ccc(-c2cn([C@H]3CC[C@@H](N)CC3)c3ncnc(N)c23)cc1 |  |  | 93 |  | -40 |  |  |  | 
8 | Nc1ncnc2c1c(-c1ccc(F)cc1)cn2[C@H]1CC[C@@H](N)CC1 | > 120 | 1.6 | 125 |  | 72 | 35 | 1.7 |  | 
9 | Nc1ncnc2c1c(-c1cccc(Cl)c1)cn2[C@H]1CC[C@@H](N)CC1 | > 120 | 5.9 | 116 |  | 84 | 98 |  |  | 
10 | Nc1ncnc2c1c(-c1ccc(O)cc1)cn2[C@H]1CC[C@@H](N)CC1 | 133 | 6.3 | 96 |  | 75 | 61 |  |  | 
11 | CCc1ccc(-c2cn([C@H]3CC[C@@H](N)CC3)c3ncnc(N)c23)cc1 |  |  | 97 |  | 46 |  |  |  | 
12 | Nc1ccccc1-c1cn([C@H]2CC[C@@H](N)CC2)c2ncnc(N)c12 |  |  | 112 |  | -35 |  |  |  | 
13 | Nc1ncnc2c1c(-c1cccc(F)c1)cn2[C@H]1CC[C@@H](N)CC1 | 107 | 6.4 | 115 |  | 71 | 50 |  |  | 
14 | Cc1ccc(-c2cn([C@H]3CC[C@@H](N)CC3)c3ncnc(N)c23)cc1Cl | 28.2 |  |  |  |  |  |  |  | 
15 | Cc1cccc(-c2cn([C@H]3CC[C@@H](N)CC3)c3ncnc(N)c23)c1 | 23.7 | 10.7 | 105 |  | 83 | 18 |  |  | 
16 | Nc1ncnc2c1c(-c1ccsc1)cn2[C@H]1CC[C@@H](N)CC1 |  |  | 99 |  | 16 |  |  |  | 
17 | Cc1ccc(-c2cn([C@H]3CC[C@@H](N)CC3)c3ncnc(N)c23)c(Cl)c1 | > 120 |  |  |  |  |  | 2.3 | 11400 | Active
18 | COc1ccc(-c2cn([C@H]3CC[C@@H](N)CC3)c3ncnc(N)c23)cc1 | 108 | 4.2 | 97 | 68 | 69 |  | 3.8 |  | 
19 | COc1ccc(-c2cn([C@H]3CC[C@@H](NC(=O)C(C)(C)C)CC3)c3ncnc(N)c23)cc1 |  | 15.6 | 77 | 47 | 45 |  |  |  | 

Row | SMILES | half-life at 1 µM [1] [min] | IC50 [2] [nM] | Activity [3] [%] | Activity [4] [%] | inhibition at 0.1 µM [5] [%] | inhibition at 10 µM [6] [%] | IC50 [7] [nM] | IC50 [8] [nM] | Activity (Mus musculus)
20 | CC(C)c1ccc(-c2cn([C@H]3CC[C@@H](N)CC3)c3ncnc(N)c23)cc1 |  |  | 95 |  | -52 |  |  |  | 
21 | COc1ccc(-c2cn([C@H]3CC[C@@H](NC(=O)C(C)Cl)CC3)c3ncnc(N)c23)cc1 (stereo not given in full) |  | 16.7 | 82 | 63 | 51 |  |  |  | 
22 | CCC(=O)N[C@H]1CC[C@@H](n2cc(-c3ccc(OC)cc3)c3c(N)ncnc32)CC1 |  | 10.8 | 77 | 54 | 53 |  |  |  | 
23 | COc1ccc(-c2cn([C@H]3CC[C@@H](NCc4cccc(OC(F)(F)F)c4)CC3)c3ncnc(N)c23)cc1 |  | 18.5 | 105 | 86 | 54 |  |  |  | 
24 | CCOc1ccc(-c2cn([C@H]3CC[C@@H](N)CC3)c3ncnc(N)c23)cc1 |  |  | 98 |  | -15 |  |  |  | 
25 | COc1ccc(-c2cn([C@H]3CC[C@@H](NS(=O)(=O)C(F)(F)F)CC3)c3ncnc(N)c23)cc1 |  | 21.1 | 73 | 55 | -2 |  |  |  | 
26 | C=CCN[C@H]1CC[C@@H](n2cc(-c3ccc(OC)cc3)c3c(N)ncnc32)CC1 | 6.3 | 5.2 | 85 | 58 | 76 |  |  |  | 
27 | Cc1ccc(-c2cn([C@H]3CC[C@@H](N)CC3)c3ncnc(N)c23)cc1C | 22.4 |  |  |  |  |  |  |  | 
28 | CC(C)Cc1ccc(-c2cn([C@H]3CC[C@@H](N)CC3)c3ncnc(N)c23)cc1 |  |  | 117 |  | -23 |  |  |  | 
29 | COc1ccc(-c2cn([C@H]3CC[C@@H](NCC#N)CC3)c3ncnc(N)c23)cc1 | 2.7 | 6.7 | 99 | 46 | 62 |  |  |  | 
30 | Cc1ccccc1-c1cn([C@H]2CC[C@@H](N)CC2)c2ncnc(N)c12 | > 120 | 7.9 | 99 |  | 88 | 54 |  |  | 
31 | Nc1ncnc2c1c(-c1ccc3c(c1)OCO3)cn2[C@H]1CC[C@@H](N)CC1 | > 120 | 0.8 | 119 |  | 68 | 64 |  |  | 
32 | Nc1ccc(-c2cn([C@H]3CC[C@@H](N)CC3)c3ncnc(N)c23)cc1F | 69.3 | 4 | 112 |  | 72 | 82 |  |  | 
33 | Cc1ccc(-c2nn(C(C)(C)CNC(=O)c3ccncc3)c3ncnc(N)c23)cc1 | 33.8 | 33.8 | 95 |  | 68 | 50 | 57.7 | 13100 | 
34 | Nc1cccc(-c2cn([C@H]3CC[C@@H](N)CC3)c3ncnc(N)c23)c1 |  |  | 98 |  | 16 |  |  |  | 
35 | Nc1ccc(-c2cn([C@H]3CC[C@@H](N)CC3)c3ncnc(N)c23)cc1 |  |  | 100 |  | 22 |  |  |  | 
36 | Nc1ncnc2c1c(-c1ccoc1)cn2[C@H]1CC[C@@H](N)CC1 |  |  | 101 |  | 13 |  |  |  | 
37 | COc1ccc(-c2cn([C@H]3CC[C@@H](NCc4ccccc4)CC3)c3ncnc(N)c23)cc1 | 1.6 | 3 | 94 | 70 | 76 |  |  |  | 
38 | COc1ccc(-c2cn([C@H]3CC[C@@H](NC(C)=O)CC3)c3ncnc(N)c23)cc1 |  | 11.7 | 80 | 57 | 27 |  |  |  | 
